Laboratory results published in ChEMBL document CHEMBL2034905, “Synthesis of benzimidazolyl-1,3,4-oxadiazol-2ylthio-N-phenyl (benzothiazolyl) acetamides as antibacterial, antifungal and antituberculosis agents” (Eur J Med Chem, 2012).
Converted amounts (≈) assume the structure as drawn.

Assays:
[1] = tested on: Mycobacterium tuberculosis; test: Antituberculosis activity against Mycobacterium tuberculosis H37Rv by Lowenstein-Jensen method; format: functional
[2] = tested on: Mycobacterium tuberculosis; test: Antituberculosis activity against Mycobacterium tuberculosis H37Rv at 6.25 ug/ml by Lowenstein-Jensen method; format: functional
[3] = Lipophilicity, log P of the compound; format: physicochemical; settings: octanol/water
[4] = tested on: Staphylococcus aureus; test: Antibacterial activity against Staphylococcus aureus MTCC 96 at 100 ug/disc by paper disc diffusion technique; format: functional; settings: read-out: IZ
[5] = tested on: Bacillus cereus; test: Antibacterial activity against Bacillus cereus MTCC 430 at 100 ug/disc by paper disc diffusion technique; format: functional; settings: read-out: IZ
[6] = tested on: Escherichia coli; test: Antibacterial activity against Escherichia coli MTCC 739 at 100 ug/disc by paper disc diffusion technique; format: functional; settings: read-out: IZ
[7] = tested on: Pseudomonas aeruginosa; test: Antibacterial activity against Pseudomonas aeruginosa MTCC 741 at 100 ug/disc by paper disc diffusion technique; format: functional; settings: read-out: IZ
[8] = tested on: Klebsiella pneumoniae; test: Antibacterial activity against Klebsiella pneumoniae MTCC 109 at 100 ug/disc by paper disc diffusion technique; format: functional; settings: read-out: IZ
[9] = tested on: Salmonella typhi; test: Antibacterial activity against Salmonella typhi MTCC 733 at 100 ug/disc by paper disc diffusion technique; format: functional, Salmonella enterica subsp. enterica serovar Typhi; settings: Salmonella enterica, read-out: IZ
[10] = tested on: Proteus vulgaris; test: Antibacterial activity against Proteus vulgaris MTCC 1771 at 100 ug/disc by paper disc diffusion technique; format: functional; settings: read-out: IZ
[11] = tested on: Shigella flexneri; test: Antibacterial activity against Shigella flexneri MTCC 1457 at 100 ug/disc by paper disc diffusion technique; format: functional; settings: read-out: IZ
[12] = tested on: Staphylococcus aureus; test: Antibacterial activity against Staphylococcus aureus MTCC 96 by agar streak dilution method; format: functional
[13] = tested on: Bacillus cereus; test: Antibacterial activity against Bacillus cereus MTCC 430 by agar streak dilution method; format: functional
[14] = tested on: Escherichia coli; test: Antibacterial activity against Escherichia coli MTCC 739 by agar streak dilution method; format: functional
[15] = tested on: Pseudomonas aeruginosa; test: Antibacterial activity against Pseudomonas aeruginosa MTCC 741 by agar streak dilution method; format: functional
[16] = tested on: Klebsiella pneumoniae; test: Antibacterial activity against Klebsiella pneumoniae MTCC 109 by agar streak dilution method; format: functional
[17] = tested on: Salmonella typhi; test: Antibacterial activity against Salmonella typhi MTCC 733 by agar streak dilution method; format: functional, Salmonella enterica subsp. enterica serovar Typhi; settings: Salmonella enterica
[18] = tested on: Proteus vulgaris; test: Antibacterial activity against Proteus vulgaris MTCC 1771 by agar streak dilution method; format: functional
[19] = tested on: Shigella flexneri; test: Antibacterial activity against Shigella flexneri MTCC 1457 by agar streak dilution method; format: functional
[20] = tested on: Aspergillus niger; test: Antifungal activity against Aspergillus niger MTCC 282 at 100 ug/disc by paper disc diffusion technique; format: functional; settings: read-out: IZ
[21] = tested on: Aspergillus fumigatus; test: Antifungal activity against Aspergillus fumigatus MTCC 343 at 100 ug/disc by paper disc diffusion technique; format: functional; settings: read-out: IZ
[22] = tested on: Aspergillus clavatus; test: Antifungal activity against Aspergillus clavatus MTCC 1323 at 100 ug/disc by paper disc diffusion technique; format: functional; settings: read-out: IZ
[23] = tested on: Candida albicans; test: Antifungal activity against Candida albicans MTCC 183 at 100 ug/disc by paper disc diffusion technique; format: functional; settings: read-out: IZ
[24] = tested on: Aspergillus niger; test: Antifungal activity against Aspergillus niger MTCC 282 by agar streak dilution method; format: functional
[25] = tested on: Aspergillus fumigatus; test: Antifungal activity against Aspergillus fumigatus MTCC 343 by agar streak dilution method; format: functional
[26] = tested on: Aspergillus clavatus; test: Antifungal activity against Aspergillus clavatus MTCC 1323 by agar streak dilution method; format: functional
[27] = tested on: Candida albicans; test: Antifungal activity against Candida albicans MTCC 183 by agar streak dilution method; format: functional
[28] = tested on: Mycobacterium tuberculosis; test: Antituberculosis activity against Mycobacterium tuberculosis H37Rv by BACTEC MGIT method; format: functional

| Structure (SMILES) | MIC [1] | inhibition at 6.25 µg/mL [2] | logP [3] | zone of inhibition at 100 µg/disc [4] | zone of inhibition at 100 µg/disc [5] | zone of inhibition at 100 µg/disc [6] | zone of inhibition at 100 µg/disc [7] | zone of inhibition at 100 µg/disc [8] | zone of inhibition at 100 µg/disc [9] | zone of inhibition at 100 µg/disc [10] | zone of inhibition at 100 µg/disc [11] | MIC [12] | MIC [13] | MIC [14] | MIC [15] | MIC [16] | MIC [17] | MIC [18] | MIC [19] | zone of inhibition at 100 µg/disc [20] | also measured |
| --- | --- | --- | --- | --- | --- | --- | --- | --- | --- | --- | --- | --- | --- | --- | --- | --- | --- | --- | --- | --- | --- |
| O=C(CSc1nnc(Cn2cnc3ccccc32)o1)Nc1nc2ccccc2s1 | 500 µg/mL (≈ 1180 µM) | 94% | 3.69 | 15 mm | 14 mm | 15 mm | 12 mm | < 10 mm | < 10 mm | 17 mm | 13 mm | 50 µg/mL (≈ 118 µM) | 100 µg/mL (≈ 237 µM) | 100 µg/mL (≈ 237 µM) | 100 µg/mL (≈ 237 µM) | 100 µg/mL (≈ 237 µM) | 100 µg/mL (≈ 237 µM) | 100 µg/mL (≈ 237 µM) | 100 µg/mL (≈ 237 µM) | < 10 mm | zone of inhibition at 100 µg/disc [21]: < 10 mm; zone of inhibition at 100 µg/disc [22]: < 10 mm; zone of inhibition at 100 µg/disc [23]: 13 mm; MIC [24]: 100 µg/mL (≈ 237 µM); MIC [25]: 100 µg/mL (≈ 237 µM); MIC [26]: 100 µg/mL (≈ 237 µM); MIC [27]: 100 µg/mL (≈ 237 µM); MIC [28]: > 6.25 µg/mL |
| CCOc1ccc2nc(NC(=O)CSc3nnc(Cn4cnc5ccccc54)o3)sc2c1 | 50 µg/mL (≈ 107 µM) | 99% | 3.9 | 22 mm | 21 mm | 24 mm | 18 mm | 21 mm | 19 mm | 26 mm | 19 mm | 12.5 µg/mL (≈ 26.8 µM) | 50 µg/mL (≈ 107 µM) | 25 µg/mL (≈ 53.6 µM) | 50 µg/mL (≈ 107 µM) | 50 µg/mL (≈ 107 µM) | 50 µg/mL (≈ 107 µM) | 12.5 µg/mL (≈ 26.8 µM) | 50 µg/mL (≈ 107 µM) | 20 mm | zone of inhibition at 100 µg/disc [21]: 13 mm; zone of inhibition at 100 µg/disc [22]: 17 mm; zone of inhibition at 100 µg/disc [23]: 26 mm; MIC [24]: 25 µg/mL (≈ 53.6 µM); MIC [25]: 100 µg/mL (≈ 214 µM); MIC [26]: 100 µg/mL (≈ 214 µM); MIC [27]: 25 µg/mL (≈ 53.6 µM); MIC [28]: > 6.25 µg/mL |
